Tests used:
[1] = tested on: BMSC (primary human bone marrow mesenchymal stromal cells); assay: absolute EC50 for viability; higher = less sensitive
[2] = tested on: BMSC (primary human bone marrow mesenchymal stromal cells); assay: drug sensitivity score (DSS); higher = more sensitive

| SMILES | absolute EC50 for viability [1] | drug sensitivity score [2] |
| --- | --- | --- |
| O=C(CCCCCCNC(=O)c1cnc(N(c2ccccc2)c2ccccc2)nc1)NO [Rocilinostat] | > 10 µM | 1.8 |
| CN(C)Cc1ccc(S(=O)(=O)n2ccc(/C=C/C(=O)NO)c2)cc1 [Resminostat] | 2.63 µM | 6 |
| CN[C@@H]1C[C@H]2O[C@@](C)([C@@H]1OC)n1c3ccccc3c3c4c(c5c6ccccc6n2c5c31)C(=O)N[C@H]4O [UCN-01] | 0.643 µM | 13.3 |
| CNC(=O)c1cc(Oc2ccc(NC(=O)Nc3ccc(Cl)c(C(F)(F)F)c3)cc2)ccn1 [Sorafenib] | > 1 µM | 0 |
| CCOc1ccccc1-n1c(C(C)N2CCN(C(=O)COc3ccc(Cl)cc3)CC2)nc2ccccc2c1=O (centres undefined) [Erastin] | > 10 µM | 2.1 |
| CN1CCN(c2ccc3nc(-c4c(N)c5c(F)cccc5[nH]c4=O)[nH]c3c2)CC1 [Dovitinib] | > 10 µM | 0.9 |
| C[C@@]1(C(=O)Nc2ccc(F)nc2)CCCN1c1nc(Nc2cc(C3CC3)n[nH]2)c2cccn2n1 | 7.74 µM | 9.3 |
| CC(=O)Nc1ccc(C(=O)Nc2ccccc2N)cc1 [Tacedinaline] | > 1 µM | 0 |
| COc1cc(OC2CCN(C)CC2)ccc1Nc1ncc2c(n1)n(C1CCCC1)c(=O)n2C [AZ 3146] | > 10 µM | 2.9 |
| C[C@@H](Nc1cc(F)cc(F)c1)c1cc(C(=O)N(C)C)cc2c(=O)cc(N3CCOCC3)oc12 [AZD-8186] | > 1 µM | 3.9 |
| O=C(Nc1cc(Oc2cc(F)c(NC(=O)C3(C(=O)Nc4ccc(F)cc4)CC3)cc2F)ccn1)C1CC1 [Altiratinib] | > 10 µM | 2.9 |
| Cc1ccc(C(=O)N(CCCN)[C@@H](c2oc3cc(Cl)ccc3c(=O)c2Cc2ccccc2)C(C)C)cc1 | > 0.1 µM | 0 |
| COc1cc(OC)cc(N(CCNC(C)C)c2ccc3ncc(-c4cnn(C)c4)nc3c2)c1 [Erdafitinib] | > 1 µM | 2.2 |
| Cc1ncc(Cl)cc1NCc1ccc(C(=O)N[C@@H](CC2CCCC2)C(=O)NC2CC2)s1 | > 5 µM | 0 |
| O=C(O)c1ccc(CN2CCC(CN[C@@H]3C[C@H]3c3ccccc3)CC2)cc1 | > 100 µM | 0 |
| N#CC(c1ccnc(OCc2ccc(CN3CCOCC3)cc2)n1)c1nc2ccccc2s1 (centres undefined) [Bentamapimod] | > 10 µM | 0 |
| COc1ccc(-c2ccc3ncc4c(c3c2)n(-c2ccc(N3CCNCC3)c(C(F)(F)F)c2)c(=O)n4C)cn1 [NVP-BGT226] | 0.0263 µM | 17.5 |
| Nc1ccn([C@@H]2O[C@H](CO)[C@@H](O)C2(F)F)c(=O)n1 [Gemcitabine] | > 1 µM | 4.5 |
| Cc1sc2c(c1C)C(c1ccc(Cl)cc1)=N[C@@H](CC(=O)Nc1ccc(O)cc1)c1nnc(C)n1-2 [Birabresib] | > 10 µM | 4.9 |
| COCCNCc1ccc(-c2cc3nccc(Oc4ccc(NC(=S)NC(=O)Cc5ccc(F)cc5)cc4F)c3s2)nc1 [Glesatinib] | > 2.5 µM | 5.1 |
| CNC(=O)c1ccccc1Nc1nc(Nc2ccc3c(c2OC)CCC[C@H](N2CCN(CCO)CC2)C3)ncc1Cl | 1.17 µM | 6.6 |
| C=C(c1ccc(C(=O)O)cc1)c1cc2c(cc1C)C(C)(C)CCC2(C)C [Bexarotene] | > 10 µM | 0 |

— the supplement of paper PMC9103864
